Results published in paper PMC2836797 (FEBS letters, 2010).

Assays:
Type in all cases: biochemical
[1] = molecular target: ND5 subunit of NADH:ubiquinone oxidoreductase (complex I) (Bos taurus, UniProt P03920); settings: read-out: -6M urea
[2] = molecular target: ND1 subunit of NADH:ubiquinone oxidoreductase (complex I) (Bos taurus, UniProt P03887); assay: photoaffinity labeling of SMP with [3H]BPA, BN-PAGE/dSDS-PAGE radioactivity
[3] = molecular target: ND2 subunit of NADH:ubiquinone oxidoreductase (complex I) (Bos taurus, UniProt P03892)
Sequence of ND2 subunit of NADH:ubiquinone oxidoreductase (complex I) (P03892 whole entry, one chain of several): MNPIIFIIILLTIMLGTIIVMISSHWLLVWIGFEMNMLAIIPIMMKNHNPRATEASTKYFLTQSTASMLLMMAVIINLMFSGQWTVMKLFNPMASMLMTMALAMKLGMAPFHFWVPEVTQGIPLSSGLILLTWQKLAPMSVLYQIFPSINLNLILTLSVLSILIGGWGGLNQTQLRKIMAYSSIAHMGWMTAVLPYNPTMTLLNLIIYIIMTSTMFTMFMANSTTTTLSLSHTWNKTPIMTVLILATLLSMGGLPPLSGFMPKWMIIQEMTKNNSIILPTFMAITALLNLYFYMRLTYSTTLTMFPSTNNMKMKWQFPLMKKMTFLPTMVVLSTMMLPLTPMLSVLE

Measured: IC50

Sequence of ND1 subunit of NADH:ubiquinone oxidoreductase (complex I) (P03887 whole entry, one chain of several): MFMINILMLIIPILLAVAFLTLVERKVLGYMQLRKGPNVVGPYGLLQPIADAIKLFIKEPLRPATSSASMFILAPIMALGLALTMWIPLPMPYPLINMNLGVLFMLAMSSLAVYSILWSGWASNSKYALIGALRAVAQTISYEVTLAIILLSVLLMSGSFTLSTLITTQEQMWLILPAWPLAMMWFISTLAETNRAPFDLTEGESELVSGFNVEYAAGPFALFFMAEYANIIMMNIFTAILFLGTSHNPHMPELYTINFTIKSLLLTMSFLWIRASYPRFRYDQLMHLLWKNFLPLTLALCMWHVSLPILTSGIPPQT
Sequence of ND5 subunit of NADH:ubiquinone oxidoreductase (complex I) (P03920 whole entry, one chain of several): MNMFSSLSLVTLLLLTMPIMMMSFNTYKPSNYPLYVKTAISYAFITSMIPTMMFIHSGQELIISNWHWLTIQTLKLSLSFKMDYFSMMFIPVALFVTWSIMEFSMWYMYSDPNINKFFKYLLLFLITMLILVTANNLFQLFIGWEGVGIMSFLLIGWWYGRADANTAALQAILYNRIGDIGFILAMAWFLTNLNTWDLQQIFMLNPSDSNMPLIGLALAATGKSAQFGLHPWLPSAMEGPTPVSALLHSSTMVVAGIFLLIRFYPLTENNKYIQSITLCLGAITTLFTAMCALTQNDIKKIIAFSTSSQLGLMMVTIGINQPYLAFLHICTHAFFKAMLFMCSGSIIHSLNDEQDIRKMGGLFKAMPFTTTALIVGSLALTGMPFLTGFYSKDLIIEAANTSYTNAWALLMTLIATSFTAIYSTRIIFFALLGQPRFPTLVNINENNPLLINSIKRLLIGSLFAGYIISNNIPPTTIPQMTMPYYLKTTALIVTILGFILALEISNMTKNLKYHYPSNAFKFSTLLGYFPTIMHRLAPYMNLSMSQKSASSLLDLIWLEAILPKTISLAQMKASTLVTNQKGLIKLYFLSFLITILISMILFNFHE

benzophenone-asimicin [BPA]
~1 nM: all assays above
